{
  "source": "patent US4918193A",
  "about": "“Methods for preparing 3-[N-phenyl-acetylaminopiperidine]-2,6-dion” (priority 1989, dated 1990)",
  "key": {"[1]": {"test": "Hydrolysis of the sodium salt upon standing", "format": "physicochemical", "method": "Five thousand grams of 3-[N-phenylacetylaminopiperidine]-2,6-dion was pulverized in a grinder, then suspended in 44 liters of pyrogen-free water. Concentrated sodium hydroxide in pyrogen-free water was added stepwise and stirred until all the powder was dissolved. The pH of the mixture was 7.0. Activated charcoal (U.S.P.) was added and stirred for 45 minutes, and then filtered. The concentration of the filtrate was adjusted to 103 mg/ml with pyrogen free water. The filtrate was then processed according to standard U.S.P. procedure for large volume injections of single dose infusions."}, "[2]": {"test": "Acute toxicity in mice, intraperitoneal injection"}, "[3]": {"test_system": "advanced neoplastic diseases", "test": "Phase I clinical studies, 500 mg capsules (Example 1)", "format": "in vivo, human", "details": "500 mg capsules daily", "method": "The phase I clinical studies with 3-[N-phenylacetylaminopiperidine]-2,6-dion 500 mg capsules involved 42 patients diagnosed with 49 types of advanced neoplastic diseases. The formulation was administered daily for from 6 to 314 days. The highest dosage taken was 288.4 mg/kg/24 hours. […] Positive clinical response was obtained in 75% of 49 treated cases."}, "[4]": {"test_system": "human neoplastic diseases", "test": "Treatment of various human neoplastic diseases (general clinical statement)", "format": "in vivo", "method": "Various human neoplastic diseases were treated with 3-[N-phenylacetylaminopiperidine]-2,6-dion or its degradation products."}, "[5]": {"test_system": "Rd/3 sarcoma", "details": "rats, Neish, Experientia, 27: 860 (1971), cited from earlier work"}},
  "note": "Entries after “also recorded” stand apart in the source; their conditions may differ. Structures can show the parent of a compound that is named as a salt. Where two headings read alike, the source gives them in different places.",
  "data": [
    {"smiles": "O=C1CCC(NC(=O)Cc2ccccc2)C(=O)N1", "note": "(stereo not shown) [3-[N-phenylacetylaminopiperidine]2,6-dion sodium salt]", "values": [
      {"measurement": "basic hydrolysis upon standing", "setting": "[1]", "result": "undergoes basic hydrolysis to form the sodium salts of phenylacetyl glutamine and phenylacetyl isoglutamine"}
    ]},
    {"smiles": "O=C1CCC(NC(=O)Cc2ccccc2)C(=O)N1", "note": "(stereo not shown) [3-[N-phenylacetylaminopiperidine]-2,6-dion]", "values": [
      {"measurement": "autopsy and microscopic findings in animals which died", "setting": "[2]; HA/ICR swiss mice, intraperitoneal", "result": "congestion of the liver and marked pulmonary edema"},
      {"measurement": "acute toxicity, overall", "setting": "[2]; experimental animals", "result": "very low toxicity"},
      {"measurement": "observation of surviving animals", "setting": "[2]; kept one week under close observation", "result": "normal activity"},
      {"measurement": "autopsy and microscopic examination of tissues of surviving animals", "setting": "[2]; sacrificed after a week, versus control uninjected subjects", "result": "identical to those of control, uninjected subjects"},
      {"measurement": "best clinical effects observed in", "setting": "[3]", "result": "chronic myelocytic leukemia and chronic lymphocytic leukemia, adenocarcinoma of the prostate, carcinoma of the breast and glioma"},
      {"measurement": "desirable side effects", "setting": "[3]", "result": "decrease of plasma levels of triglycerides and cholesterol; also recorded: increase of white blood cell count, red blood cell count and platelet count; also recorded: improvement of blood clotting"},
      {"measurement": "adverse reactions", "setting": "[3]; highest dosage 288.4 mg/kg/24 hours", "result": "minimal adverse reactions, including excessive gas, gastrointestinal bleeding (most likely not related to 3-[N-phenylacetylaminopiperidine]-2,6-dion but to primary disease), moderately increased blood pressure, skin rash, vertigo, hypokalemia, hypoglycemia and mild myelosuppression"},
      {"measurement": "Positive clinical response", "setting": "[3]; of 49 treated cases, 6 to 314 days", "result": 75, "unit": "%"},
      {"measurement": "usefulness / effectiveness in the treatment of human cancers", "setting": "[4]; Applicant's clinical studies", "result": "effective to some extent in aiding the regression of tumors"},
      {"measurement": "regression of tumors associated with named human cancers", "setting": "[4]; cancer of esophagus, breast, bladder, colon, lung, prostate, pancreas, uterine cervix, brain, bone and lung metastases, lymphatic lymphoma", "result": "with success in the regression of tumors"}
    ]},
    {"smiles": "O=C(O)Cc1ccccc1", "note": "[sodium salt of phenylacetic acid]", "values": [
      {"measurement": "effect on tumor growth, Rd/3 sarcoma", "setting": "[5]", "result": "failed to inhibit tumor growth"},
      {"measurement": "effect on tumor growth, Rd/3 sarcoma", "setting": "[5]; listed as phenylacetic acid", "result": "some enhancement of tumor growth"}
    ]}
  ]
}
